From patent US20260306642A1, “STAT DEGRADERS AND USES THEREOF” (Recludix Pharma, Inc., priority 2023, published 2026)
Where two headings read alike, the source gives them in different places.

Legend:
STAT3 = molecular target: T1, STAT3 (Homo sapiens, UniProt P40763); assay: STAT3 Fluorescence Polarization (FP) Assay; type: binding
T1 construct: Recombinant STAT3 protein (STAT3(G127-I722))
Procedure: An FP assay was developed to determine IC50 values for test substances.
Recombinant STAT3 protein (STAT3(G127-I722)) at 25 nM was combined with a fluorescently labeled, phosphotyrosine peptide probe (5-FAM-GpYLPQTV-NH2) at 2 nM in FP buffer (10 mM HEPES pH 7.4, 50 mM NaCl, 1 mM EDTA, 0.05% Tween 20, 2 mM DTT). 50 μL of STAT3-probe mixture was added to serial diluted compounds in black, 96-well plates (Greiner BioOne 655076) to a final concentration of 1% DMSO. Reaction components were mixed, and FP was measured after 45-minute incubation at room temperature using a Tecan Spark multimode plate reader. FP signal (mP) was plotted against the log concentration of the test substances and IC50 values were calculated by nonlinear regression analysis using GraphPad Prism software. For STAT3 FP assay, A=≤100 nM; B=>100-1000 nM; C=>1-10 μM; and D=>10 μM.

pSTAT3 = pSTAT3 (Homo sapiens, UniProt P40763); assay: MSD-pSTAT-PBMC Assay (pSTAT3, IL-6 stimulated); type: cell-based
pSTAT3, sequence (P40763 whole entry): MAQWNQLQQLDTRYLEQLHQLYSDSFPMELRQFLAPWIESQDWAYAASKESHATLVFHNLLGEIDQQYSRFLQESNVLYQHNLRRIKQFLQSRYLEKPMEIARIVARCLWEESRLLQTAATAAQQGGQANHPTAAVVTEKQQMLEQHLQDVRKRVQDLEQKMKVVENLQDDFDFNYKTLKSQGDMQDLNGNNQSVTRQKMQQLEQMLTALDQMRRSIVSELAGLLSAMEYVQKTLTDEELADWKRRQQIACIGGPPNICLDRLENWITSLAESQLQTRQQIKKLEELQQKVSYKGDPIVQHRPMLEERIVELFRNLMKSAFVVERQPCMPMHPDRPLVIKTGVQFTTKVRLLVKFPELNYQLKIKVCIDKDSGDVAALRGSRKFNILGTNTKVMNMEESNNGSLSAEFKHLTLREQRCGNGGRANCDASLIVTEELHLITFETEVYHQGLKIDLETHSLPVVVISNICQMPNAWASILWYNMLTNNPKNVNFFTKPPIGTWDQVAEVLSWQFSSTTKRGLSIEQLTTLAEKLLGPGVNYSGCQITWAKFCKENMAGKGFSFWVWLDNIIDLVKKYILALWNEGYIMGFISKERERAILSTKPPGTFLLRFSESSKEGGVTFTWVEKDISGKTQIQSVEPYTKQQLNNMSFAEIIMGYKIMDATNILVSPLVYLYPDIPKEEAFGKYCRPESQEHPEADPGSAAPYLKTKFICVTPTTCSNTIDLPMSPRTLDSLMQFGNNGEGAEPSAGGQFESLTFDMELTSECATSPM
Excerpt: Cryopreserved Peripheral Blood Mononuclear Cells (PBMC) are from AllCells. Recombinant Human IL-4 and IL-6 are from Peprotech. Mouse monoclonal anti-STAT3 antibody, rabbit monoclonal anti-pY705-STAT3 antibody, rabbit monoclonal Anti-pY641-STAT6 antibody, and lysis buffer are from Cell Signaling Technology (CST). Mouse monoclonal anti-STAT6 antibody is from BioLegend. Assay plates, blocker, and anti-rabbit secondary antibody are from Meso Scale Discovery (MSD).
Cryopreserved PBMCs were thawed out and allowed to recover overnight in IMDM+10% heat-inactivated FBS prior to plating 50,000 (STAT3) or 25,000 (STAT6) cells per well in 96-well U-bottom tissue culture plates. Cells were treated with compound for 3 hrs, then stimulated with 10 ng/mL IL-6 (STAT3) or 1 ng/mL IL-4 (STAT6) for 10 min. Cells were then spun down and washed with ice-cold PBS prior to lysing the cell pellet with 1× lysis buffer (CST) with 1× HALT protease and phosphatase inhibitor cocktail (Thermo). Lysates were transferred to and incubated overnight at 4° C. with shaking in QuickPlex 96-well high bind assay plates (MSD) pre-coated overnight with 30 μL per well of […] mouse monoclonal anti-STAT3 antibody (STAT3) or 2 μg/mL mouse monoclonal anti-STAT6 antibody (STAT6) in 1× PBS, and pre-blocked for 1 hour with 3% Blocker-A (MSD). Captured protein in the assay plates were then washed and probed with 25 μL per well of […] rabbit monoclonal anti-pY705-STAT3 antibody (STAT3) or […] rabbit monoclonal Anti-pY641-STAT6 antibody (STAT6) in 1% Blocker-A for 1 hour at room temperature with shaking, then washed and probed with 25 ul per well of 1 ug/ml Sulfo-TAG Labeled Goat Anti-Rabbit Antibody (MSD) in 1% Blocker-A for 1 hour at room temperature with shaking. Assay plates were then washed and 150 μL of 1× Read Buffer-T (MSD) was added to each well prior to reading on an SQ120 MSD Plate Reader. Assay signal from each sample was subtracted by the signal from unstimulated control wells and normalized to DMSO control wells. IC50 values were calculated using Graph Pad Prism Dose-Response Nonlinear Regression with variable slope. For both pSTAT3 and pSTAT6 A=≤100 nM; B=>100-1000 nM; C=>1000-3000 nM; and D=>3 μM.

STAT6 = molecular target: T2, STAT6 (Homo sapiens, UniProt P42226); assay: STAT6 Fluorescence Polarization (FP) Assay; type: binding
T2 construct: Recombinant STAT6 protein (STAT6(W123-T658))
T2 sequence (P42226 123-658): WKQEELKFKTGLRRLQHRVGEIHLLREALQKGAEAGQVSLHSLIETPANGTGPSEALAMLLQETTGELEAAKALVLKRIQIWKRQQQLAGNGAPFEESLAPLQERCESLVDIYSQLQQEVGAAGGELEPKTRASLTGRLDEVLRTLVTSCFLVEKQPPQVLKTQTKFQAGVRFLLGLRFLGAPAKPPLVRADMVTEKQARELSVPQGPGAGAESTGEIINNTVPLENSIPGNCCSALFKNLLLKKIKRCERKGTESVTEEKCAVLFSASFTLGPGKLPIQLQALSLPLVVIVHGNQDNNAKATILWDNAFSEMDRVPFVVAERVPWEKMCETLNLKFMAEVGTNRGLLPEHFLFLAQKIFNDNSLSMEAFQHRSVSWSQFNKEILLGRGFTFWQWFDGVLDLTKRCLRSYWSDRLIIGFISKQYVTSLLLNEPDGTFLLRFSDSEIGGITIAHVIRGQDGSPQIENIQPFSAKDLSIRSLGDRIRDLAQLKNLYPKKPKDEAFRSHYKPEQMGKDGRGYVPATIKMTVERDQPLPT
Procedure: An FP assay was developed to determine IC50 values for test substances. Recombinant STAT6 protein (STAT6(W123-T658)) at 250 nM was combined with a fluorescently labeled, phosphotyrosine peptide probe (5-FAM-ApYKPFQDLI-NH2) at 2 nM in FP buffer (10 mM HEPES pH 7.4, 50 mM NaCl, 1 mM EDTA, 0.05% Tween 20, 2 mM DTT). 50 μL of STAT6-probe mixture was added to serial diluted compounds in black, 96-well plates (Greiner BioOne 655076) to a final concentration of 1% DMSO. Reaction components were mixed, and FP was measured after 45-minute incubation at room temperature using a Tecan Spark multimode plate reader. FP signal (mP) was plotted against the log concentration of the test substances and IC50 values were calculated by nonlinear regression analysis using GraphPad Prism software. For STAT6 FP assay, A=≤300 nM; B=>300-3000 nM; C=>3-30 μM; and D=>30 μM.

[1] = compound 3 hrs, then 10 ng/mL IL-6 10 min, pY705-STAT3, read-out: pSTAT3 IC50
[2] = read-out: pSTAT3 IC50, compound 3 hrs, then 10 ng/mL IL-6 10 min, pY705-STAT3

T1 sequence (P40763 127-722): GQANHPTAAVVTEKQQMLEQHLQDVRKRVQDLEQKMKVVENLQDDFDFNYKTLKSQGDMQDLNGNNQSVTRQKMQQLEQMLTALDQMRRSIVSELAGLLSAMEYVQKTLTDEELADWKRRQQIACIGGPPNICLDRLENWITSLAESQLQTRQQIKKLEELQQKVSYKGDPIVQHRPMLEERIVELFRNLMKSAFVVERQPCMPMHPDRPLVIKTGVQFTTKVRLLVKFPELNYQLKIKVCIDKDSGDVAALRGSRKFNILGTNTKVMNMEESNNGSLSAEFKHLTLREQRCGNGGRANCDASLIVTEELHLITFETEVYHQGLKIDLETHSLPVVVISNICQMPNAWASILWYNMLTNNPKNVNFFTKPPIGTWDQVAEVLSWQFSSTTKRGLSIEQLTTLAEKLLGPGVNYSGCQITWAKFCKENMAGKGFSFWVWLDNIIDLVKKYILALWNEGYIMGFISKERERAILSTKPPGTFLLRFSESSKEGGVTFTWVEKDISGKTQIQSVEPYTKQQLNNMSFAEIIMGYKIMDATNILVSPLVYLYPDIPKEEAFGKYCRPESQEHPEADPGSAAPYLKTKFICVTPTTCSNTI

| SMILES | IC50 (STAT3) [µM] | IC50 (pSTAT3; [1]) [µM] | IC50 (STAT6) [µM] | IC50 (pSTAT3; [2]) [µM] |
| --- | --- | --- | --- | --- |
| Cc1ncsc1-c1ccc(CNC(=O)[C@@H]2C[C@@H](O)CN2C(=O)[C@@H](NC(=O)C2CCN(c3ccncc3C3CN(C(=O)[C@@H]4CC[C@@H]5CCC[C@H](NC(=O)c6cc7cc(C(F)(F)P(=O)(O)O)ccc7s6)C(=O)N54)C3)CC2)C(C)(C)C)cc1 [Compound 8, (difluoro(2-(((3S,6S,9aS)-3-(3-(4-(4-(((S)-1-((2S,4R)-4-hydroxy-2-((4-(4-methylthiazol-5-yl)benzyl)carbamoyl)pyrrolidin-1-yl)-3,3-dimethyl-1-oxobutan-2-yl)carbamoyl)piperidin-1-yl)pyridin-3-yl)azetidine-1-carbonyl)-5-oxooctahydro-1H-pyrrolo[1,2-a]azepin-6-yl)carbamoyl)benzo[b]thiophen-5-yl)methyl)phosphonic acid] | < 0.1 | 1 to 3 | 0.3 to 3 |  |
| Cc1ncsc1-c1ccc([C@H](C)NC(=O)[C@@H]2C[C@@H](O)CN2C(=O)[C@@H](NC(=O)COCCOCC(=O)NC2(c3ccccn3)CN(C(=O)[C@@H]3CC[C@H]4CCCC[C@H](NC(=O)c5cc6cc(C(F)(F)P(=O)(O)O)ccc6s5)C(=O)N43)C2)C(C)(C)C)cc1 [Compound 31, (difluoro(2-(((3S,6S,10aR)-3-(3-(2-(2-(2-(((S)-1-((2S,4R)-4-hydroxy-2-(((S)-1-(4-(4-methylthiazol-5-yl)phenyl)ethyl)carbamoyl)pyrrolidin-1-yl)-3,3-dimethyl-1-oxobutan-2-yl)amino)-2-oxoethoxy)ethoxy)acetamido)-3-(pyridin-2-yl)azetidine-1-carbonyl)-5-oxodecahydropyrrolo[1,2-a]azocin-6-yl)carbamoyl)benzo[b]thiophen-5-yl)methyl)phosphonic acid] | < 0.1 |  | 3 to 30 | > 3 |
| O=C1CCC(c2ccc(OCCOCCOc3ccncc3C3CN(C(=O)[C@@H]4CC[C@@H]5CCC[C@H](NC(=O)c6cc7cc(C(F)(F)P(=O)(O)O)ccc7s6)C(=O)N54)C3)cc2)C(=O)N1 (stereo partly drawn) [Compound 11, ((2-(((3S,6S,9aS)-3-(3-(4-(2-(2-(4-(2,6-dioxopiperidin-3-yl)phenoxy)ethoxy)ethoxy)pyridin-3-yl)azetidine-1-carbonyl)-5-oxooctahydro-1H-pyrrolo[1,2-a]azepin-6-yl)carbamoyl)benzo[b]thiophen-5-yl)difluoromethyl)phosphonic acid] | < 0.1 | > 3 | 3 to 30 |  |
| Cc1ncsc1-c1ccc([C@H](C)NC(=O)[C@@H]2C[C@@H](O)CN2C(=O)[C@@H](NC(=O)COCCOCCC(=O)NC2(c3ccccn3)CN(C(=O)[C@@H]3CC[C@H]4CCCC[C@H](NC(=O)c5cc6cc(C(F)(F)P(=O)(O)O)ccc6s5)C(=O)N43)C2)C(C)(C)C)cc1 [Compound 33, (difluoro(2-(((3S,6S,10aR)-3-(3-(3-(2-(2-(((S)-1-((2S,4R)-4-hydroxy-2-(((S)-1-(4-(4-methylthiazol-5-yl)phenyl)ethyl)carbamoyl)pyrrolidin-1-yl)-3,3-dimethyl-1-oxobutan-2-yl)amino)-2-oxoethoxy)ethoxy)propanamido)-3-(pyridin-2-yl)azetidine-1-carbonyl)-5-oxodecahydropyrrolo[1,2-a]azocin-6-yl)carbamoyl)benzo[b]thiophen-5-yl)methyl)phosphonic acid] | < 0.1 |  | 3 to 30 | > 3 |

Continued, in another order:

| IC50 (STAT3) [µM] | IC50 (pSTAT3; [1]) [µM] | IC50 (STAT6) [µM] | SMILES | IC50 (pSTAT3; [2]) [µM] |
| --- | --- | --- | --- | --- |
| < 0.1 | 0.1 to 1 | 3 to 30 | Cn1c(=O)n(C2CCC(=O)NC2=O)c2ccc(C#CCCC3CCN(c4ccncc4C4CN(C(=O)[C@@H]5CC[C@@H]6CCC[C@H](NC(=O)c7cc8cc([C@H](F)P(=O)(O)O)ccc8s7)C(=O)N65)C4)CC3)cc21 (stereo partly drawn) [Compound 37, ((1R)-(2-(((3S,6S,9aS)-3-(3-(4-(4-(4-(1-(2,6-dioxopiperidin-3-yl)-3-methyl-2-oxo-2,3-dihydro-1H-benzo[d]imidazol-5-yl)but-3-yn-1-yl)piperidin-1-yl)pyridin-3-yl)azetidine-1-carbonyl)-5-oxooctahydro-1H-pyrrolo[1,2-a]azepin-6-yl)carbamoyl)benzo[b]thiophen-5-yl)fluoromethyl)phosphonic acid] |  |
| < 0.1 | 0.1 to 1 | > 30 | Cn1c(=O)n(C2CCC(=O)NC2=O)c2ccc(C#CCCC3CCN(c4ccncc4C4CN(C(=O)[C@@H]5CC[C@@H]6CCC[C@H](NC(=O)c7cc8cc(C(F)P(=O)(O)O)ccc8s7)C(=O)N65)C4)CC3)cc21 (stereo partly drawn) [Compound 36, ((2-(((3S,6S,9aS)-3-(3-(4-(4-(4-(1-(2,6-dioxopiperidin-3-yl)-3-methyl-2-oxo-2,3-dihydro-1H-benzo[d]imidazol-5-yl)but-3-yn-1-yl)piperidin-1-yl)pyridin-3-yl)azetidine-1-carbonyl)-5-oxooctahydro-1H-pyrrolo[1,2-a]azepin-6-yl)carbamoyl)benzo[b]thiophen-5-yl)fluoromethyl)phosphonic acid] |  |
